Laboratory results from US20250282779A1, “SUBSTITUTED 5,6,7,8-TETRAHYDROPYRIDO[2,3-D]PYRIMIDINE-2,4-DIONES FOR TREATING CARDIAC DISEASES” (MYOKARDIA, INC., priority 2018, published 2025).

Experiment: Reactive metabolite identification (glutathione adducts)
Type: in vitro ADME, human
Conditions: for % GSH-adduct (+NADPH, +GSH) relative to parent (−NADPH, −GSH): human liver microsomes, 30 μM, 60 min
Description: Reactive Metabolite Identification
In vitro determination of reactive metabolite formation for small molecules by detection of glutathione adducts formed in vitro in incubations with human liver microsomes fortified with NADPH and glutathione.
Methods: The metabolism of small molecules (30 μM) for glutathione adduct formation was assessed in incubations (200 μL volume, […], 60 min incubation time) with liver microsomes from human (1 mg/mL protein) conducted in potassium phosphate buffer (0.1 M, pH 7.4) for 1 h at 37° C. in a 96-well plate (2 mL well volume) and were performed in the absence of NADPH (used as a negative control) and in the presence of NADPH (1 mM) and glutathione (GSH, 10 mM). Incubations with liver microsomes were performed in a shaking water bath incubator with slow horizontal shaking (30 rpm). To obtain 30 μM incubation concentration of a compound, a 3 mM substrate stock solution in DMSO was used. Final incubation mixtures contained 148 μL of potassium phosphate buffer, 10 μL of liver microsome solution (20 mg protein/mL), 2 μL of the 3 mM substrate solution and where incubations were initiated by the addition of 40 μL of NADPH solution (5 mM dissolved in potassium phosphate buffer). Non-NADPH containing incubations were supplemented with 40 μL of potassium phosphate buffer. Post-incubation, reactions were terminated by adding an equal volume of acetonitrile containing 20 nM carbamazepine internal standard and 3% formic acid. Quenched samples then were centrifuged (4,600 rpm, 4° C., 10-min) after which the supernatants were transferred to a 96-well LC-MS sample analysis plate and diluted with one volume equivalent of HPLC-grade water, and then heat sealed with aluminum foil prior to analysis by liquid chromatography/mass spectrometry (LC-MS/MS).
Analyte identification: The LC-MS/MS detection (with in-line UV detection at 280 nm) of test compounds and potential GSH-adducts was focused on extracting selected ion chromatographic profiles using the protonated molecular ion MH^+ m/z for parent to 4 decimal places, and corresponding protonated molecular ions of predicted GSH-adduct metabolites (m/z MH^+ parent+305.0681 amu) using Xcalibur software (version 2.1.0, Thermo Fisher Scientific, Waltham, MA). Relative GSH-adduct abundance in vitro in liver microsome extracts was assessed using the LC/UV absorbance at 280 nm peak area ratio obtained by using Xcalibur software (version 2.1.0) between the detected GSH-adducts from NADPH- and GSH-fortified incubation extracts and the corresponding LC/UV peak area of the parent compound from minus NADPH containing incubation extracts. The extent of GSH-adduct formation was determined by LC-MS/MS analysis with in-line LC-UV detection at 280 nm by dividing the glutathione-adduct LC/UV peak area by the LC/UV peak area of the corresponding parent HCM-1 NG analog determined from analysis of control (-NAPDH, -GSH) incubations extracts.
Materials: Pooled male human (HLM, 50 donors) liver microsomes were obtained from Bioreclamation IVT (Baltimore, MD). Glutathione (GSH) and NADPH were purchased from Sigma Chemical Co. (St. Louis, MO). All solvents used for liquid chromatography-tandem mass spectrometry (LC-MS/MS) analyses were of chromatographic grade.
LC-MS Conditions: Extracts from incubations with liver microsomes and hepatocytes were characterized by LC-MS and LC-MS/MS on a Thermo Electron LTQ Orbitrap XL mass spectrometer coupled with a Dionex UltiMate 3000 UHPLC containing in-line diode array detection and an OAS-3300TXRS Autosampler (40 μL injection volume). Electrospray ionization (ESI) was employed in the positive ion mode with the needle potential held at 5.01 kV, a sheath flow rate of 35.02, aux flow rate of 9.99, a current of 2.6 uA, a capillary temperature of 325° C., and a capillary voltage of 15.99. Vacuum conditions used were an ion gauge pressure used was 2.33×10^−5 Torr and a convection gauge pressure of 0.90 Torr. […]

% GSH-adduct (+NADPH, +GSH) relative to parent (−NADPH, −GSH) | Glutathione Adduct Detection in Human Liver Microsome Incubations (single measurement) (single measurement) | Glutathione Adduct Detection in Human Liver Microsome Incubations, Average (triple measurements) (triple measurements) | Structure (SMILES)
Not Detected | – | – | O=c1[nH]c2c(c(=O)n1C1CCOCC1)CC(F)(F)[C@H](c1cccc(F)c1)N2 [Compound C-1, (S)-6,6-difluoro-7-(3-fluorophenyl)-3-(tetrahydro-2H-pyran-4-yl)-5,6,7,8-tetrahydropyrido[2,3-d]pyrimidine-2,4(1H,3H)-dione, reference compound]
Not Detected | Not Detected | Not Detected | Cc1ccc(F)c([C@@H]2Nc3[nH]c(=O)n(C4CCOCC4)c(=O)c3C[C@@H]2F)c1 [Compound 3, (6S,7S)-6-fluoro-7-(2-fluoro-5-methylphenyl)-3-(tetrahydro-2H-pyran-4-yl)-5,6,7,8-tetrahydropyrido[2,3-d]pyrimidine-2, 4 (1H, 3H)-dione]
